The text below walks through data of US20200199681A1, “MDA-7 CANCER THERAPIES AND METHODS OF DETECTING BIOMOLECULES” (VIRGINIA COMMONWEATLH UNIVERSITY, priority 2016, published 2020).

One assay has as its system cancer cells. Particulars: cited from earlier work.
For a further assay, the system named is miR-221. The experiment in a line: level of miR-221 by real time PCR (RQ-PCR, taqman probe). It counts as cell-based, human. Conditions: for miR-221 levels: low doses alone: ATO 1 μM, hydrogen peroxide 10 μM, pyocyanin 50 μM.
The test system of a further assay is Hela and DU-145 cells. Conditions: cited from earlier work.
Assay [1] relates to non-cancerous immortalized NOK cells. Conditions: cited from earlier work.
A further assay relates to U2OS cells. Conditions: cited from earlier work.

In the case of `CC(=O)N[C@@H](CS)C(=O)O` [NAC, N-acetyl cysteine], in the assay on cancer cells, the “cell death mediated by mda-7/IL-24” value is “inhibits”. Moreover, in the assay with miR-221 (MDA-MB-231 cells, pretreatment for 12 hours), the “effect on down regulation of miR-221 by ROS inducer with Ad.mda-7” value is reported as “abrogated down regulation of miR-221”.

For `C[S+]([O-])c1ccc(-c2nc(-c3ccncc3)c(-c3ccc(F)cc3)[nH]2)cc1` (stereo not drawn) [SB203580], the Ad.mda-7-induced apoptosis entry with cancer cells is listed as “inhibits”.

On to `OO` [hydrogen peroxide], for which, in the assay with miR-221 (MDA-MB-231 cells), the miR-221 levels result is recorded as “did not alter”.

As to `Cn1c2cccc(=O)c-2nc2ccccc21` [pyocyanin], in the assay with miR-221 (MDA-MB-231 cells), the miR-221 levels entry was “did not alter”.

As for Arsenic trioxide, the miR-221 levels entry in the assay on miR-221 (MDA-MB-231 cells) is “did not alter”.

B1: His-MDA-7: purified recombinant His tagged MDA-7/IL-24 protein (protein, UniProt Q13007 52-206, looked up)
Interleukin-24: QEFHFGPCQVKGVVPQKLWEAFWAVKDTMQAQDNITSARLLQQEVLQNVSDAESCYLVHTLLEFYLKTVFKNYHNRTVEVRTLKSFSTLANNFVLIVSQLQPSQENEMFSIRDSAHRRFLLFRRAFKQLDVEAALTKALGEVDILLTWMQKFYKL
modifications: His tag
notes: purified recombinant His tagged MDA-7/IL-24 protein
As for B1, the miR-221 expression entry is “remained unchanged” in the assay on miR-221 (A549 cells (lack cognate receptor pairs)), “sensitive to miR-221 down regulation” in the assay with miR-221 (A549 cells overexpressing IL-20R2 or IL-22R1) and “decreased” in the assay with miR-221 (DU-145 cells (both receptor types)).

B2: M1: MDA-7/IL-24 deletion mutant, signal peptide deleted (protein, UniProt Q13007 52-206, looked up)
Interleukin-24: QEFHFGPCQVKGVVPQKLWEAFWAVKDTMQAQDNITSARLLQQEVLQNVSDAESCYLVHTLLEFYLKTVFKNYHNRTVEVRTLKSFSTLANNFVLIVSQLQPSQENEMFSIRDSAHRRFLLFRRAFKQLDVEAALTKALGEVDILLTWMQKFYKL
modifications: signal peptide deleted
notes: MDA-7/IL-24 deletion mutant, signal peptide deleted
As for B2, the “tumor inhibitory effects of MDA-7/IL-24” value in the assay with Hela and DU-145 cells was “did not disrupt the tumor inhibitory effects”.

B3: Full length MDA-7/IL-24: full-length transcript with all 7 exons (protein, UniProt Q13007 1-206, looked up)
chain: MNFQQRLQSLWTLARPFCPPLLATASQMQMVVLPCLGFTLLLWSQVSGAQGQEFHFGPCQVKGVVPQKLWEAFWAVKDTMQAQDNITSARLLQQEVLQNVSDAESCYLVHTLLEFYLKTVFKNYHNRTVEVRTLKSFSTLANNFVLIVSQLQPSQENEMFSIRDSAHRRFLLFRRAFKQLDVEAALTKALGEVDILLTWMQKFYKL
modifications: full-length
notes: full-length transcript with all 7 exons
With B3, in assay [1], the “viability of NOK cells” value is recorded as “no effect”. Moreover, the U2OS cell viability entry with U2OS cells is listed as “capable of reducing U2OS cell viability”.
